This note sets out measurements from patent publication US7635423B2, “Redox potential mediated, heterogeneous, carbon nanotube biosensing” (E. I. du Pont de Nemours and Company, priority 2004, dated 2009).

The test system of data set [1] is Trametes versicolor laccase. Nature of the data set: Laccase inhibitor kinetics: rate of ABTS^−2 oxidation at varied inhibitor and substrate concentrations. The class given is biochemical. The protocol:
High potential quinones/quinols were screened to identify those with characteristics that would be suitable for use as an inhibitor of laccase, to be used in an activity switch.
Compounds were evaluated by varying the concentrations of inhibitor and substrate (ABTS^−2) and measuring under each condition the rate of ABTS^−2 oxidation. […] Tetrachloro-o-quinol and tetrafluoro-o-quinol, shown in Diagram I, had Kds, of 7-9 μM and 2.5 μM, respectively, as determined from the data in FIG. 20.
[…]

Data set [2] relates to Trametes versicolor laccase. Nature of the data set: Laccase assay: ABTS^−2 oxidation followed at 436 nm, with and without NaF. To be noted: 1 mM NaF; 5 mM ABTS^−2; 50 mM Glycine pH 3.0. It is filed as biochemical. As for the experimental part:
A stock solution of Trametes versicolor laccase (4.8 mg/ml) was diluted 200,000-fold into 50 mM Glycine, pH 3.0. At time zero, ABTS^−2 (2,2′-azino-bis(3-ethylbenzthiazoline-6-sulfonate) diammonium salt was added at a concentration of 5 mM and the oxidation of ABTS^−2 was followed by monitoring the absorbance change at 436 nm. Shown in FIG. 12 is the result of the laccase assay in the presence and absence of 1 mM NaF. The latter inhibits the laccase activity by 95%.

For data set [3], the system named is laccase (Type I copper center). Nature of the data set: Laccase 600 nm absorbance peak on inhibitor binding. Further details: species or system Trametes versicolor. An excerpt:
This conclusion was strengthened by the observation that the binding of tetrachloro-o-quinol to laccase caused a decrease in the amplitude of the laccase 600 nm absorbance peak, dominated by a charge-transfer band involving the Type I copper center and its cysteinyl ligand.

Data set [4] deals with surface-attached oligo 29 (complementary) vs oligo 28 (non-complementary). Nature of the data set: Detection of DNA hybridization by CNT device (current vs time at Vg=−0.4 V). To be noted: 30 μM ABTS^−2, 50 mM glycine pH 3, adduct 50 nM (in DNA). The protocol: Detection of DNA hybridization in a CNT device was assayed as diagramed in FIG. 17. […] In the diagram, two electrodes are indicated, one source electrode (10) and one drain electrode (20), where the electrodes are connected by an electrically conducting path comprising at least one semiconducting carbon nanotube (30). A third electrode (40) generates an electric field to gate the conductance of the CNT. Nucleic acid molecules, functioning as capture moieties (220) are attached to a surface (60) through a silyl butyraldehyde attachment group (230). An oligonucleotide (260) that hybridizes to the capture moiety nucleic acid is attached to the enzyme laccase (270). Laccase oxidizes ABTS^−2 (2,2′ azino-di-(3-ethylbenzthiazoline-sulfonate) at the expense of O2, transferring 4 electrons from 4ABTS^−2 to O2, producing 4ABTS^−1 and H2O. Thus the redox potential of the redox effector (ABTS^−2/ABTS^−1) in solution becomes more positive. This change in effector redox potential oxidizes the CNTs, increasing their p-type conductance. […]
Electron transport through the CNT was first recorded in the 50 mM glycine pH=3 buffer and immediately after flowing 30 μM ABTS^−2 in the same buffer into the flow cell. […]

The test system of data set [5] is surface-bound oligonucleotide 51. In words: Fluorescence signals following hybridization to surface bound oligo. To be noted: camera exposure 30 s. The class given is binding. The protocol:
To increase the specificity of hybridization, the chips were incubated with Sigma #6429 1× Blocking buffer for 1 h. Excess blocking solution was removed by rinsing with 50 mM Na Acetate pH 5.0 plus 100 mM Na2SO4. Surface-bound oligonucleotide 51 was hybridized separately to: • 1) Oligonucleotide 52 (SEQ ID NO:4), acting as a target sequence, hybridized to oligonucleotide 54 (SEQ ID NO:5). Oligonucleotide 54 has 18 nucleotides complementary to the 3′ end of the target oligonucleotide 52 and a fluorescent tag, Alexa Fluor 546, at its 5′ end. Oligonucleotide 52 has at its 5′ end 18 nucleotides complementary to oligonucleotide 51. • 2) Oligonucleotide 52 (SEQ ID NO:4), acting as a target sequence, hybridized to oligonucleotide 50 (SEQ ID NO:5). Oligonucleotide 50 has the same nucleotide sequence as oligonucleotide 54 and was attached to laccase enzyme (lac/oligo 50) as described below in Example 13, This oligonucleotide also has a Cy3 tag at its 3′ end. All oligonucleotides were purchased from Integrated DNA Technologies, Inc. (Coralville, Iowa). Oligos 52 and 54 in (1), and oligos 52 and 50 in (2) were prehybridized in 50 mM Na Acetate pH 5.0 plus 100 mM Na2SO4 for 10 min at 50° C., then allowed to cool to room temperature before adding to the chip with oligo 51.
Hybridizations of the surface bound probe, oligo 51, with the samples listed above were carried out in 50 mM Na Acetate pH 5.0 plus 100 mM Na2SO4. Unbound oligonucleotides were removed by rinsing with Washing Buffer A (Arraylt, Telechem International Inc., Sunnyvale, Calif.). Where a laccase/DNA adduct was used for hybridization, 50 mM Na Acetate pH 5.0 plus 100 mM Na2SO4 was used for the wash. After washing, the chip was covered with a cover slip and observed using a fluorescence microscope. The extent of hybridization was evaluated by measuring fluorescence emission from fluorescent-tagged oligonucleotides attached or not to laccase.
Results of fluorescent signals following hybridizations in 1) and 2) above, using different concentrations of oligos as listed, are given in Table 1. […]

Where [6] appears, read: plots of reciprocal rate vs inhibitor concentration, FIG. 20, read-out: Kd (dissociation constant of the inhibitor, -Ki intersection).

Values joined by “and” are separate entries in the source; they are usually repeats but may differ in a detail not shown here. Equal values may be shown once. Where a name gives a salt, the structure may show the parent alone. Read-outs that look alike come from different tables or passages of the source.

As usually defined, the Kd is the free concentration of one partner at which half of the binding sites on the other are occupied at equilibrium, for simple one-to-one binding. In the case of `CCn1c(=NN=c2sc3cc(S(=O)(=O)O)ccc3n2CC)sc2cc(S(=O)(=O)O)ccc21` [ABTS^−2, 2,2′-azino-bis(3-ethylbenz-thiazoline-6-sulfonate) diammonium salt, reference compound], the equilibrium dissociation constant (Kd) in data set [1] (substrate of laccase, read-out: dissociation constant, Kd of the laccase substrate) lay in the range of 120 to 240 µM. Take `[F-].[Na+]` [NaF]: the “inhibition of laccase activity” value in data set [2] is recorded as 95%.

As for `Oc1c(O)c(Cl)c(Cl)c(Cl)c1Cl` [Tetrachloro-o-quinol], the “activity as an inhibitor of laccase” value in data set [1] is “effective inhibitor”. For the same molecule, the Kd in data set [1] (setting [6]) was 7 to 9 µM. Further, the “amplitude of the laccase 600 nm absorbance peak on binding” value in data set [3] was “decrease”. For the molecule `Oc1c(Cl)c(Cl)c(O)c(Cl)c1Cl` [tetrachloro-p-quinol], the “activity as an inhibitor of laccase” value in data set [1] is “inactive”. In the case of `Oc1c(O)c(F)c(F)c(F)c1F` [tetrafluoro-o-quinol], the dissociation constant Kd in data set [1] (setting [6]) came to 2.5 µM.

Consider “oligo28/laccase adduct: oligo 28 (SEQ ID NO:1) attached via 5′ hydrazide to periodate-treated Trametes versicolor laccase (CGCTGTGATGGTGGCCCC; Laccase enzyme attached through a 5' hydrazide, further chemistry not given here)”, for which the “increase in current, complementary vs non-complementary surface oligonucleotide” value in data set [4] is listed as 3.5 fold.

B1: Oligo52 + Oligo54: target oligonucleotide 52 (SEQ ID NO:4) prehybridized to oligonucleotide 54 (SEQ ID NO:5) with 5′ Alexa Fluor 546 tag (nucleic acid)
chain 1: GGGGCCACCATCACAGCGTTTTTTTTTTGGGGCCACCATCACAGCG
chain 2: CGCTGTGATGGTGGCCCC
modifications: Second strand carries a 5' Alexa Fluor 546 label, further chemistry not given here; the letters are possibly those of the target site
For B1, the Relative signal amplitude in data set [5] (1 nM) is 39 and 50; in data set [5] (10 nM) it was 940 and 990; in data set [5] (100 nM) it was 1140 and 1690.
